# Measurements from PubChem BioAssay AID2060493 (Molecular Pharmacology Branch, DTP, NCI, 2025).
# Tested on: 616215-338-R-J1-PDC tumor spheroids, viability
# Assay: Anticancer human tumor 616215-338-R-J1-PDC patient-derived colon adenocarcinoma cell line growth inhibition [GQUAD]
# Conditions: spheroids with HUVEC and MSC; for IC50: curve of first compound; for viability, T/C: stronger effect = lower value
# Outline: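 Viability of tumor cells grown as complex spheroids with endothelial and stromal cells, exposed to drug combinations. Top concentration at or near clinical Cmax (else 10 microM), diluted in half-log increments.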
# [1] = second compound 0.0316 µM, first compound 0.0316 µM
# [2] = second compound 0.0316 µM, first compound 0.1 µM
# [3] = second compound 0.0316 µM, first compound 0.316 µM
# [4] = second compound 0.0316 µM, first compound 1 µM
# [5] = second compound 0.0316 µM, first compound 3.16 µM
# [6] = second compound 0.0316 µM, first compound 10 µM
# [7] = second compound 0.1 µM, first compound 0.0316 µM
# [8] = second compound 0.1 µM, first compound 0.1 µM
# [9] = second compound 0.1 µM, first compound 0.316 µM
# [10] = second compound 0.1 µM, first compound 1 µM
# [11] = second compound 0.1 µM, first compound 3.16 µM
# [12] = second compound 0.1 µM, first compound 10 µM
# [13] = second compound 0.316 µM, first compound 0.0316 µM
# [14] = second compound 0.316 µM, first compound 0.1 µM
# [15] = second compound 0.316 µM, first compound 0.316 µM
# [16] = second compound 0.316 µM, first compound 1 µM
# [17] = second compound 0.316 µM, first compound 3.16 µM
# [18] = second compound 0.316 µM, first compound 10 µM
# [19] = second compound 1 µM, first compound 0.0316 µM
# [20] = second compound 1 µM, first compound 0.1 µM
# [21] = second compound 1 µM, first compound 0.316 µM
# [22] = second compound 1 µM, first compound 1 µM
# [23] = second compound 1 µM, first compound 3.16 µM
# [24] = second compound 1 µM, first compound 10 µM
# [25] = second compound 3.16 µM, first compound 0.0316 µM
# [26] = second compound 3.16 µM, first compound 0.1 µM
# [27] = second compound 3.16 µM, first compound 0.316 µM
# [28] = second compound 3.16 µM, first compound 1 µM
# [29] = second compound 3.16 µM, first compound 3.16 µM
# [30] = second compound 3.16 µM, first compound 10 µM
# [31] = second compound 10 µM, first compound 0.0316 µM
# [32] = second compound 10 µM, first compound 0.1 µM
# [33] = second compound 10 µM, first compound 0.316 µM
# [34] = second compound 10 µM, first compound 1 µM
# [35] = second compound 10 µM, first compound 3.16 µM
# [36] = second compound 10 µM, first compound 10 µM
# 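Further: spheroids exposed to agents for 7 days before readout.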
# 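Wherever viability, T/C is given: percent viability relative to DMSO vehicle control wells taken as 100%.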
smiles,measurement,setting,value
CC(=O)O[C@H]1C(=O)[C@@]2(C)[C@H]([C@H](OC(=O)c3ccccc3)[C@]3(O)C[C@H](OC(=O)[C@H](O)[C@@H](NC(=O)c4ccccc4)c4ccccc4)C(C)=C1C3(C)C)[C@]1(OC(C)=O)CO[C@@H]1C[C@@H]2O + Cc1cnc(CNC(=O)c2c(=O)c3ccc(N4CCCN(C)CC4)nc3n3c2sc2ccccc23)cn1,IC50,second compound 0.0316 µM,< 31.6 nM
same,IC50,second compound 0.1 µM,< 31.6 nM
same,IC50,second compound 0.316 µM,< 31.6 nM
same,IC50,second compound 1 µM,< 31.6 nM
same,IC50,second compound 3.16 µM,< 31.6 nM
same,IC50,second compound 10 µM,< 31.6 nM
same,"viability, T/C",[1],37.2%
same,"viability, T/C",[2],24.9%
same,"viability, T/C",[3],20.3%
same,"viability, T/C",[4],15.9%
same,"viability, T/C",[5],27.6%
same,"viability, T/C",[6],17.1%
same,"viability, T/C",[7],26.9%
same,"viability, T/C",[8],35.8%
same,"viability, T/C",[9],31.1%
same,"viability, T/C",[10],26.7%
same,"viability, T/C",[11],26.2%
same,"viability, T/C",[12],32%
same,"viability, T/C",[13],37%
same,"viability, T/C",[14],34.4%
same,"viability, T/C",[15],38.5%
same,"viability, T/C",[16],36.4%
same,"viability, T/C",[17],39.4%
same,"viability, T/C",[18],24.7%
same,"viability, T/C",[19],22.9%
same,"viability, T/C",[20],35.4%
same,"viability, T/C",[21],30.1%
same,"viability, T/C",[22],37.9%
same,"viability, T/C",[23],30.2%
same,"viability, T/C",[24],33.8%
same,"viability, T/C",[25],26.6%
same,"viability, T/C",[26],21.6%
same,"viability, T/C",[27],28.9%
same,"viability, T/C",[28],35.8%
same,"viability, T/C",[29],22.5%
same,"viability, T/C",[30],30.2%
same,"viability, T/C",[31],25%
same,"viability, T/C",[32],22.3%
same,"viability, T/C",[33],27.9%
same,"viability, T/C",[34],25%
same,"viability, T/C",[35],24.4%
same,"viability, T/C",[36],25.8%
CC(C)n1c(=O)n(C)c2cnc3cc(F)c(-c4ccc(OCCCN5CCCCC5)nc4)cc3c21 + Cc1[nH]c2ccc(F)cc2c1-c1nc2c3cccnc3c3ncccc3c2[nH]1,IC50,second compound 0.0316 µM,> 10000 nM
same,IC50,second compound 0.1 µM,> 10000 nM
same,IC50,second compound 0.316 µM,> 10000 nM
same,IC50,second compound 1 µM,> 10000 nM
same,IC50,second compound 3.16 µM,> 10000 nM
same,IC50,second compound 10 µM,> 10000 nM
same,"viability, T/C",[1],102%
same,"viability, T/C",[2],98.8%
same,"viability, T/C",[3],97.5%
same,"viability, T/C",[4],101%
same,"viability, T/C",[5],117%
same,"viability, T/C",[6],70.9%
same,"viability, T/C",[7],103%
same,"viability, T/C",[8],99.6%
same,"viability, T/C",[9],100%
same,"viability, T/C",[10],107%
same,"viability, T/C",[11],112%
same,"viability, T/C",[12],85.7%
same,"viability, T/C",[13],107%
same,"viability, T/C",[14],99.3%
same,"viability, T/C",[15],100%
same,"viability, T/C",[16],106%
same,"viability, T/C",[17],100%
same,"viability, T/C",[18],72.9%
same,"viability, T/C",[19],99%
same,"viability, T/C",[20],116%
same,"viability, T/C",[21],97.5%
same,"viability, T/C",[22],93.6%
same,"viability, T/C",[23],101%
same,"viability, T/C",[24],95.7%
same,"viability, T/C",[25],99%
same,"viability, T/C",[26],93.8%
same,"viability, T/C",[27],87.3%
same,"viability, T/C",[28],98.7%
same,"viability, T/C",[29],104%
same,"viability, T/C",[30],57.4%
same,"viability, T/C",[31],94.5%
same,"viability, T/C",[32],94.7%
same,"viability, T/C",[33],99.1%
same,"viability, T/C",[34],91.2%
same,"viability, T/C",[35],107%
same,"viability, T/C",[36],87%
COc1cccc2c1C(=O)c1c(O)c3c(c(O)c1C2=O)CC(O)(C(=O)CO)CC3OC1CC(N)C(O)C(C)O1 (stereo unspecified) + Cc1[nH]c2ccc(F)cc2c1-c1nc2c3cccnc3c3ncccc3c2[nH]1,IC50,second compound 0.0316 µM,771 nM
same,IC50,second compound 0.1 µM,504 nM
same,IC50,second compound 0.316 µM,554 nM
same,IC50,second compound 1 µM,937 nM
same,IC50,second compound 3.16 µM,506 nM
same,IC50,second compound 10 µM,623 nM
same,"viability, T/C",[1],108%
same,"viability, T/C",[2],88.2%
same,"viability, T/C",[3],58.6%
same,"viability, T/C",[4],39.3%
same,"viability, T/C",[5],38.8%
same,"viability, T/C",[6],2.47%
same,"viability, T/C",[7],96.8%
same,"viability, T/C",[8],92.8%
same,"viability, T/C",[9],46.3%
same,"viability, T/C",[10],41.5%
same,"viability, T/C",[11],21.6%
same,"viability, T/C",[12],4%
same,"viability, T/C",[13],105%
same,"viability, T/C",[14],75.5%
same,"viability, T/C",[15],53.7%
same,"viability, T/C",[16],49%
same,"viability, T/C",[17],18.7%
same,"viability, T/C",[18],2.01%
same,"viability, T/C",[19],91.7%
same,"viability, T/C",[20],91.2%
same,"viability, T/C",[21],71.6%
same,"viability, T/C",[22],44.5%
same,"viability, T/C",[23],27.6%
same,"viability, T/C",[24],2.3%
same,"viability, T/C",[25],89.2%
same,"viability, T/C",[26],84.6%
same,"viability, T/C",[27],50%
same,"viability, T/C",[28],39%
same,"viability, T/C",[29],23.4%
same,"viability, T/C",[30],1.17%
same,"viability, T/C",[31],103%
same,"viability, T/C",[32],76.2%
same,"viability, T/C",[33],55.6%
same,"viability, T/C",[34],54.8%
same,"viability, T/C",[35],20.1%
same,"viability, T/C",[36],1.64%
